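96-well plates; 48 h exposure; 5 concentrations. Endpoints by linear interpolation between flanking doses. Not reached: highest tested concentration assigned. At the GI50, growth is halved.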 Activity calls are given as the source filed them. Cut-off read from the data, not from the text of the source: active = GI50 up to about 1.1 µM and inactive = higher.

Holding throughout (test): NCI anticancer screen, dose series, 48 h
The test system of assay [1] is 786-0.
Assay [2] deals with A498.
Assay [3] deals with A549.
For assay [4], the system named is COLO 205.
Assay [5] relates to HCT-116.
The subject of assay [6] is HCT-15.
The subject of assay [7] is M14.
For assay [8], the system named is NCI-H460.
The subject of assay [9] is OVCAR-4.
In assay [10] the test system is SF-539.
The subject of assay [11] is SK-MEL-2.
Assay [12] deals with SK-MEL-5.
For assay [13], the system named is SNB-75.
The subject of assay [14] is SR.
Assay [15] deals with SW-620.
Assay [16] concerns U-251.
The subject of assay [17] is UO-31.
Assay [18] relates to OVCAR-5.
Assay [19] has as its system RPMI-8226.

Take `CCOc1ccccc1NC(=O)C(=O)Cc1nc2ccccc2s1`: the GI50 in assay [1] was > 100 µM (inactive); in assay [2] it was > 100 µM (inactive); in assay [3] it was > 100 µM (inactive); in assay [4], > 100 µM (inactive); in assay [5], > 100 µM (inactive); in [6] it was more than 100 µM. Moreover, the GI50 in assay [7] was > 100 µM (inactive); in assay [8] it was > 100 µM (inactive); in [9] it was 90.4 µM (inactive); in [10], > 100 µM (inactive); in [11], > 100 µM (inactive); in assay [12], > 100 µM (inactive). For the same compound, the GI50 in [13] is 77.1 µM (inactive); in [14], > 100 µM (inactive); in assay [15], > 100 µM (inactive); in assay [16], > 100 µM (inactive); in [17], > 100 µM (inactive).
`Cc1nc2c3c(ccc2nc1O)C(=O)c1ccccc1C3=O`: the GI50 was > 100 µM (inactive) in assay [1]; 20.3 µM (inactive) in [2]; 52 µM (inactive) in assay [3]; > 100 µM (inactive) in [4]; 40 µM (inactive) in assay [5]; 48 µM in assay [6]. Also, the GI50 in assay [7] was > 100 µM (inactive); in assay [8] it was 37.2 µM (inactive); in assay [9], > 100 µM (inactive); in [18], > 100 µM (inactive); in assay [10] it was 40.8 µM (inactive); in assay [12], > 100 µM (inactive). For the same compound, the GI50 is 15.6 µM (inactive) in assay [13]; > 100 µM (inactive) in assay [14]; 56.2 µM (inactive) in assay [15]; 54.1 µM (inactive) in assay [16]; 6.15 µM (inactive) in [17].
`CC(C)=CCOc1ccc(-c2coc3cc4c(c(O)c3c2=O)C=CC(C)(C)O4)cc1`: the GI50 is 96.8 µM (inactive) in assay [1]; 14.9 µM (inactive) in assay [2]; 32.9 µM (inactive) in [3]; > 100 µM (inactive) in assay [4]; 6.9 µM (inactive) in assay [5]; 21 µM in assay [6]. In addition, the GI50 was 63.2 µM (inactive) in assay [8]; 16.7 µM (inactive) in assay [9]; > 100 µM (inactive) in assay [18]; 27.3 µM (inactive) in [19]; 0.207 µM (active) in [12]; > 100 µM (inactive) in [14]. The GI50 is > 100 µM (inactive) in assay [15], 38.8 µM (inactive) in [16] and > 100 µM (inactive) in [17].
For `C/N=C(\N=c1/ss/c(=N\C)n1C)N(C)C.[O-][Cl+3]([O-])([O-])O`, the GI50 was > 100 µM (inactive) in assay [1]; 29.2 µM (inactive) in assay [2]; > 100 µM (inactive) in assay [3]; 28.2 µM (inactive) in assay [4]; > 100 µM (inactive) in assay [7]; > 100 µM (inactive) in [8]. Also, the GI50 in [9] is > 100 µM (inactive); in assay [18], > 100 µM (inactive); in [19] it was 74.6 µM (inactive); in assay [10], 79.1 µM (inactive); in assay [12] it was > 100 µM (inactive); in assay [13], > 100 µM (inactive). In addition, the GI50 was 70.8 µM (inactive) in [14], > 100 µM (inactive) in assay [15], > 100 µM (inactive) in assay [16] and > 100 µM (inactive) in [17].
For the compound `COc1cc2c(cc1OC)C1C=NC(C(=O)O)(C2)c2ccccc21` (stereo not drawn), the GI50 was > 100 µM (inactive) in assay [1]; > 100 µM (inactive) in assay [2]; > 100 µM (inactive) in assay [3]; > 100 µM (inactive) in assay [4]; > 100 µM (inactive) in assay [5]; more than 100 µM in assay [6]. Moreover, the GI50 in assay [7], in assay [8], in assay [9], in assay [18], in assay [19] and in assay [10] was > 100 µM (inactive) throughout. For the same compound, the GI50 in assay [12] is > 100 µM (inactive); in assay [13], > 100 µM (inactive); in [14], > 100 µM (inactive); in [15], > 100 µM (inactive); in assay [16], > 100 µM (inactive); in [17], > 10 µM (inactive).

The values above are taken from ChEMBL document CHEMBL1201862, “PubChem BioAssay data set” (2004).
